This is an account of results in patent US5552552A, “Crystalline salts of optically active aminocoumaran derivatives, their production and use” (Takeda Chemical Industries, Ltd., priority 1992, dated 1996).

For series [1] the following is noted: in words; free form (racemate), as described in EP-A-0483772; cited from earlier work.
Series [2] can be described thus: Stability / hygroscopicity (no method). Type of series: physicochemical. The note with it: in words; derivative (B), racemate; no data.
Series [3] relates to behavioral change induced by spinal intrathecal injection of FeCl2 (ferrous chloride). In words: Change of behavior induced by spinal intrathecal injection of FeCl2 in mice. The note with it: 25 mg/kg oral; for Mean Score, 25 mg/kg Administered: behavior observed 15 min to 1 h after intrathecal 50 mM FeCl2, 5 μl/mouse, 10 mice per group, score 0 (normal) to 5 (death); for Percent Suppression (%): calculated from the mean behavioral scores, FeCl2 intrathecal, mice. Type of series: in vivo, male Slc:ICR mice (printed "SIc: IcR mice"). The text has this:
Effect on drugs on the change of behavior induced by spinal in intrathecal injection of FeCl2 in mice.
Male SIc: IcR mice (5 weeks) (10 mice per group) were used. […] The following criteria were used to score behavioral changes.
1: Frequent bites to lower limbs and lower abdomen.
2: One of the following three responses is seen: a) Violent bites to lower half of body, with occasionally rolling b) Hypersensitive aggressive behavior in response to external stimulation […]
4: Tonic convulsion, or unilateral or bilateral limb paralysis […]
Percent inhibitions were calculated from the scores obtained as above (percent inhibition=[(5-score)/5]×100). The subject compound salt was orally administered during the 30-minute period following administration of ferrous chloride.

Where a name gives a salt, the structure may show the parent alone.

Turning to `Cc1c(C)c2c(c(C)c1N)CC(C)(CN1CCC(c3ccccc3)CC1)O2` (racemic) [Derivative (B), 5-amino-2,4,6,7-tetramethyl-2-(4-phenylpiperidinomethyl)-2,3-dihydrobenzo[b]furan], in series [1], the “water solubility of the free form” value was “sparingly water-soluble”. In addition, the hygroscopicity and stability entry in series [2] is “hygroscopic and hence unstable”.
For the molecule `Cc1c(C)c2c(c(C)c1N)C[C@@](C)(CN1CCC(c3ccccc3)CC1)O2` [Example 3, (S)--(+)-5-amino-2,4,6,7-tetramethyl-2-(4-phenylpiperidinomethyl)-2,3-dihydrobenzo [b]furan dihydrochloride], in series [3], the “Mean Score, 25 mg/kg Administered” value was 0.2 and the “Percent Suppression (%)” value is 96%.
With `Cc1c(C)c2c(c(C)c1N)C[C@](C)(CN1CCC(c3ccccc3)CC1)O2` [Example 4, (R)--(-)-5-amino-2,4,6,7-tetramethyl-2-(4-phenylpiperidinomethyl)-2,3-dihydrobenzo [b]furan dihydrochloride], in series [3], the “Mean Score, 25 mg/kg Administered” value is 1.3 and the “Percent Suppression (%)” value is reported as 72.3%.
